In patent EP3441078A1, “PHARMACEUTICAL PRODUCT FOR TREATING LUPUS ERY[…] COMBINED IMMUNE DEFECT, AND PREPARATION AND APPLICATION THEREOF” (Beijing Lu De Kai Qi Co., Ltd., priority 2016, dated 2017):
Read-outs that look alike come from different tables or passages of the source. Marks after values point to notes of the source that are not given here.

Tests used:
[1] = test system: polychromatic erythrocytes in bone marrow of mice; conditions: 50mg/kg•bw, positive control; for Number of Micronuclei(in Ge): 5000 cells inspected; for Permillage of Micronuclei: P<0.01 vs negative control
Description: (§1) The healthy Kunming mice provided by the Experimental Animal Center of the National Institute for the Control of Pharmaceutical and Biological Products were selected.
The assay was carried out via oral gavage and the administration was performed twice at intervals of 24 hrs. 50 mice weighing 25-30 g were randomly divided into 5 groups according to body weight, 10 in each group, half male and half female. […] The doses of the anti-lupus erythematosus pharmaceutical product for combined immunization according to the present invention were 2.00, 4.00, and 6.00 g/kg•bw, respectively, which were adjusted to the desired concentration with distilled water. The animals were sacrificed by cervical dislocation six hours after the last administration of the anti-lupus erythematosus pharmaceutical product for combined immunization according to the present invention. The bone marrow of sternum was acquired and diluted with calf serum, smeared, fixed in methanol, and stained with Giemsa. Under the light microscope, 1000 polychromatic erythrocytes (PRC) were measured per animal, and the incidence of micronucleus was determined by the permillage of micronucleus-containing PRC and statistically processed. […] Kunming healthy mice provided by Laboratory Animal Center of National Institutes for Food and Pharmaceutical product Control were selected.
The test was carried out by two-time intragastric administration at an interval of 24 hours.50 mice weighing 25-30 g were randomly divided into 5 groups according to their body weight. They were randomly divided into 5 groups according to their body weight, with 10 mice in each group, half male and half female. […] The doses of the anti-lupus erythematosus pharmaceutical product for combined immunization of the present invention were 2.00, 4.00 and 6.00 g/kg•bw respectively, and were mixed with distilled water to the desired concentration. The animals were sacrificed by cervical dislocation 6 hours after the last administration of the anti-lupus erythematosus pharmaceutical product for combined immunization of the present invention. The sternum bone marrow was diluted with calf serum, fixed with methanol, and stained with Giemsa. Under the light microscope, 1000 polychromatic erythrocytes (PRC) were counted per animal, and the incidence of micronuclei was measured by the permillage of micronucleus-containing PRC and statistically processed.

[2] = test system: sperm abnormality in mice; conditions: male mice, 40mg/kg•bw, positive control
Description: 1. […] The walnut extract, wormwood extract, American ginseng extract and shí hú extract were respectively taken, treated in a 70°C water bath for 1 hour, soaked for 12 hours, and concentrated for testing.
as §1
50 sexually mature male mice weighing 30-35 g were randomly divided into 5 groups. […] The doses of the anti-lupus erythematosus pharmaceutical product for combined immunization according to the present invention were 2.00, 4.00, and 6.00 g/kg•bw, respectively, and the desired concentration were adjusted with distilled water. The mice were administered via oral gavage once a day for 5 days, and the animals were sacrificed 30 days after the last gavage. The epididymis was acquired and sectioned and stained with eosin. Five animals were counted in each group and 1000 intact sperm were counted per animal. The incidence of sperm abnormality (in percentage) was calculated and statistically processed.

O=P1(N(CCCl)CCCl)NCCCO1 (stereo not drawn) [cp, cyclophosphamide]
Number of Micronuclei(in Ge) ([1]; Female mice): 150
Permillage of Micronuclei ([1]; Female mice): 30.0* ‰
Number of Micronuclei(in Ge) ([1]; Male mice): 150
Permillage of Micronuclei ([1]; Male mice): 30.0* ‰
Number of Abnormal Sperms(in Ge) ([2]; 5000 sperms inspected): 480
Percentage of Abnormal Sperms ([2]; P<0.01 vs negative control): 9.6* %
